Experimental data: the supplement of paper PMC10307832

Tests used:
Assay in all cases: relative viability (nuclei count vs DMSO), 5 days (fraction); higher = more cells survive
Wnt-C59 + Linsitinib = compound: CC1=NC=CC(=C1)C2=CC=C(C=C2)CC(=O)NC3=CC=C(C=C3)C4=CN=CC=C4 [Wnt-C59] + C[C@]1(O)C[C@@H](c2nc(-c3ccc4ccc(-c5ccccc5)nc4c3)c3c(N)nccn32)C1 [Linsitinib] (partner 1 µM)
In short: (§1)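 Dosing by pin tool came one day after lung cancer cell lines were seeded in 1536-well plates, using either one drug or a fixed anchor-drug dose plus five library-drug doses (not always all listed) in √10 steps. After 5 days, nuclei were counted on 4× images. Relative viability is treated-well nuclei count divided by vehicle-well nuclei count, and values are medians of duplicate plates.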

Lapatinib + Dasatinib = compound: CS(=O)(=O)CCNCc1ccc(-c2ccc3ncnc(Nc4ccc(OCc5cccc(F)c5)c(Cl)c4)c3c2)o1 [Lapatinib] + Cc1nc(Nc2ncc(C(=O)Nc3c(C)cccc3Cl)s2)cc(N2CCN(CCO)CC2)n1 [Dasatinib] (partner 0.075 µM)
In short: as §1

Wnt-C59 + Vorinostat = compound: CC1=NC=CC(=C1)C2=CC=C(C=C2)CC(=O)NC3=CC=C(C=C3)C4=CN=CC=C4 [Wnt-C59] + O=C(CCCCCCC(=O)Nc1ccccc1)NO [Vorinostat] (partner 1 µM)
In short: as §1

Wnt-C59 + Palbociclib = compound: CC1=NC=CC(=C1)C2=CC=C(C=C2)CC(=O)NC3=CC=C(C=C3)C4=CN=CC=C4 [Wnt-C59] + CC(=O)c1c(C)c2cnc(Nc3ccc(N4CCNCC4)cn3)nc2n(C2CCCC2)c1=O [Palbociclib] (partner 0.5 µM)
In short: as §1

Cell Line	relative viability (Wnt-C59 + Linsitinib; first compound 0.001 µM)	relative viability (Wnt-C59 + Linsitinib; first compound 0.01 µM)	relative viability (Wnt-C59 + Linsitinib; first compound 0.03162 µM)	relative viability (Wnt-C59 + Linsitinib; first compound 0.1 µM)	relative viability (Lapatinib + Dasatinib; first compound 0.02 µM)	relative viability (Lapatinib + Dasatinib; first compound 0.06325 µM)	relative viability (Lapatinib + Dasatinib; first compound 0.2 µM)	relative viability (Lapatinib + Dasatinib; first compound 0.6325 µM)	relative viability (Lapatinib + Dasatinib; first compound 2 µM)	relative viability (Wnt-C59 + Vorinostat; first compound 0.001 µM)	relative viability (Wnt-C59 + Vorinostat; first compound 0.01 µM)	relative viability (Wnt-C59 + Vorinostat; first compound 0.03162 µM)	relative viability (Wnt-C59 + Vorinostat; first compound 0.1 µM)	relative viability (Wnt-C59 + Palbociclib; first compound 0.001 µM)	relative viability (Wnt-C59 + Palbociclib; first compound 0.01 µM)	relative viability (Wnt-C59 + Palbociclib; first compound 0.03162 µM)	relative viability (Wnt-C59 + Palbociclib; first compound 0.1 µM)
SK-MES-1	1.11	1.1	1.02	1.08	0.243	0.143	0.157	0.19	0.126	1.12	1.11	1.21	1.03	0.29	0.321	0.316	0.339
Calu-6	0.89	0.9	0.987	0.955	–	–	–	–	–	–	–	–	–	–	–	–	–
NCI-H838	1.07	0.997	1.01	1.04	0.263	–	0.304	0.276	0.247	0.709	0.704	0.786	0.708	0.238	0.22	0.238	0.221
NCI-H2009	1.17	1.15	1.19	1.12	0.282	0.244	0.358	0.33	0.286	0.722	0.679	0.758	0.712	0.231	0.149	0.198	0.239
NCI-H647	1.08	1.15	1.18	1.22	0.158	0.155	0.167	0.197	0.201	0.577	0.582	0.957	0.585	0.346	0.326	0.388	0.316
NCI-H1993	0.703	0.811	0.699	0.799	0.564	–	0.55	0.516	0.563	0.78	0.758	0.978	0.394	0.694	0.648	0.663	0.602
LCLC-97TM1	0.182	0.171	0.176	0.156	–	–	0.854	0.91	0.875	0.733	0.765	0.901	0.706	0.254	0.228	0.216	0.248
EKVX	1.07	0.846	1.01	0.757	–	0.321	0.423	0.384	0.196	0.805	0.585	0.574	0.557	0.389	–	0.327	0.179
NCI-H596	1.04	0.954	1.16	1.1	–	0.521	0.621	0.573	0.486	0.601	0.603	0.59	0.76	–	–	–	–
NCI-H1975	1.01	0.88	1.01	0.922	0.417	0.316	0.378	0.41	0.219	0.727	0.76	0.756	0.706	0.605	0.601	0.607	0.554
A549	0.568	0.498	0.555	0.504	–	–	–	–	–	–	–	–	–	–	–	–	–
HCC-78	0.507	0.498	0.576	0.584	–	0.42	0.333	0.464	0.411	0.439	0.407	0.476	0.484	0.476	0.488	0.494	0.455
H3255	1.01	0.962	1.02	0.866	0.316	0.325	0.315	0.288	0.18	0.79	0.71	0.95	0.86	0.354	0.331	0.302	0.311
RERF-LC-KJ	0.914	0.79	0.908	0.85	0.812	0.545	0.732	0.75	0.36	0.746	0.671	0.825	0.715	1.22	1.07	1.2	1.08
HCC-44	0.745	0.641	0.665	0.644	–	–	–	–	–	1.16	1.02	1.13	1.12	0.982	0.977	1.04	1
NCI-H1650	–	–	–	–	0.263	0.253	0.264	0.38	0.245	0.69	0.638	0.606	0.516	0.341	0.321	0.318	0.378
NCI-H1648	–	–	–	–	–	–	–	–	–	0.421	0.369	0.655	0.364	0.288	0.241	0.259	0.23
SW 900	–	–	–	–	–	0.435	0.479	0.595	0.373	0.475	0.343	0.479	0.488	0.48	0.461	0.608	0.54
NCI-H1792	0.557	0.5	0.465	0.549	0.763	–	0.754	0.68	0.425	–	–	–	–	0.673	0.655	0.672	0.656
NCI-H2342	–	–	–	–	0.262	0.293	0.301	0.303	0.263	0.706	0.747	0.855	0.732	0.491	0.488	0.55	0.504
NCI-H1623	–	–	–	–	0.541	0.491	–	0.578	0.21	–	–	–	–	–	–	–	–
NCI-H2170	–	–	–	–	0.394	0.272	0.276	0.419	0.165	0.803	0.795	0.834	0.809	0.393	0.397	0.416	0.367
NCI-H1299	0.965	1.07	0.961	1	–	–	–	–	–	–	–	–	–	–	–	–	–
ChaGo-K-1	–	–	–	–	0.43	0.531	0.544	0.527	0.592	0.751	0.781	0.689	0.774	0.97	0.885	0.953	0.957
